The text below walks through data of patent publication US6893834B2, “Assay for kinases and phosphatases” (Promega Corporation, priority 2000, dated 2005).

For data set [1], the system named is 3T3 NIH cells. Briefly: PI-3K activity associated with activated receptor in PDGF-stimulated 3T3 NIH cells. The settings on record: PDGF 50 ng/ml, 5 min, 37° C.; reaction 60 min, PI4,5P2 (10 μg) + PS (20 μg); FIG. 3. It is filed as cell-based. As to the method:
FIG. 3: Detection of PI-3K activity associated with activated receptor. 3T3NIH cells (5×10^7 cells) were treated without (lane 1) or with (lane 2) PDGF (50 ng/ml for 5 min at 37° C.) and PI-3K was co-immunoprecipitated using anti-phosphotyrosine specific antibodies. The PI-3K reactions were run for 60 min using PIP2 (10 μg)+PS (20 μg) as substrates.
In resting cells, PI-3K is located in the cytosol. However, upon cell stimulation, the enzyme is recruited to the plasma membrane where it is associated with particular receptors and is involved in further propagation of the signal. This example illustrates that the described method allows to measure PI-3K activity associated with activated receptor. 3T3 NIH cells (0.5×10^7 cells) were starved oveminght in serum-free medium. PDGF (50 ng/ml) was added to the starved cells and the induction was carried out for 5 min at 37° C. Following the PDGF induction, cells were washed once with PBS while on the plate, scraped into PBS, transferred to a centrifuge tube, pelleted by centrifugation. The cell pellet was lysed and activated receptor-PI-3K complex was iminunoprecipitated using anti-phosphotyrosine specific antibodies. The PI-3K reaction was run for 60 min using PI4,5P2 (10 μg) as substrate, immobilized on “SAM2”-brand membranes, together with 20 μg of carrier lipid (PS).

Data set [2] concerns PI-5K. The experiment in a line: Reaction specificity of PI-5K toward lipid substrates. The settings on record: purified PI-5K 125 ng/ml, 15 min, room temperature; FIG. 9. In kind it is biochemical. As to the method: FIG. 9: Reaction specificity toward lipid substrates. Reactions according to the subject invention were performed with purified PI4P-5K (250 ng/ml) for 45 min at room temperature using 1 μg of different lipid substrates: PI3,4P (lane 1); PI3,5P2 (lane 2) and PI4,5P2 (lane 3). In addition to lipid substrates, all samples contained 10 μg of PS loaded on the membrane.
Lipids, 10 μg of PI4,5P2+20 μg of PS, were dissolved in chloroform:methanol (2:1) and loaded onto “SAM2”-brand membranes for PI-3K activity measurements. Likewise, 10 μg of PI4P was loaded onto “SAM2”-brand membranes for PI4P-5K activity measurements. The membranes were air dried and a reaction mixture containing 50 mM HEPES/NaOH, pH7.5, 100 mM NaCl, 10 mM MgCl2, 20 ng partially-purified PI-3K or 10 ng of purified PI4P-5K, 50 μM ATP supplemented with 1 μCi of γ-^32P-ATP was added onto the membrane containing the immobilized lipids.
Following incubation at room temperature, the reactions were stopped with 7.5 M guanidine chloride and the membranes were washed with 2M NaCl, followed by 2 M NaCl/1% H3PO4. The washed membranes were dried and subjected to scintillation counting.
This Example illustrates the reaction specificity toward lipid substrates. Here, a reaction was performed with purified PI-5K (125 ng/ml) for 15 min at room temperature using different lipid substrates: PI3,4P (lane 1); PI3,5P (lane 2) and PI4,5P2 (Lane 3).

As to platelet-derived growth factor [PDGF], the “PI-3K activity co-immunoprecipitated with anti-phosphotyrosine antibodies” value in data set [1] was “increase in PI-3K activity”.
With “D-myo-phosphatidylinositol 4,5-bisphosphate [PI4,5P]”, the “substrate for PI-5K (phosphorylation, CPM)” value in data set [2] is “not substrates”.
With “D-myo-phosphatidylinositol 3,5-bisphosphate [PI3,5P]”, in data set [2], the “substrate for PI-5K (phosphorylation, CPM)” value was “not substrates”.
Same read-out and setting: the same measure for “D-myo-phosphatidylinositol 3,4-bisphosphate [PI3,4P]”: “suitable substrate”.
